From patent US20230331792A1, “NEW MULTI-FUNCTIONAL OLIGOPEPTIDES” (ENLITISA (SHANGHAI) PHARMACEUTICAL CO., LTD., priority 2019, published 2023)
Square brackets hold non-standard residues; d marks the D form. Ends that are not written are not given here. Dopa = N[C@@H](Cc1ccc(O)c(O)c1)C(=O)O; Hyp = O=C(O)[C@@H]1C[C@@H](O)CN1

Legend:
Assay type in all cases: in vivo
C57BL/6 mice [1] = experiment: Air pouch model (carrageenan-induced acute inflammation); design: key to Inflammation score / Edema score: 1 = mild, 2 = moderate, 3 = severe
Experimental: Healthy adult male C57BL/6 mice weighing between 20 and 30 g were supplied by Changzhou Cvens Experimental Animal Co. Ltd. Prior to any experiments being conducted, the mice were housed under standardized conditions (at a constant temperature or 22±2° C., with alternating 12-hour periods of light and darkness), and were fed on a standard mouse diet with water, for about a week. The mice were randomly divided into 9 groups as described in Table 4, with 7 mice in each group.
General anaesthesia was induced using intraperitoneal delivery of 3% chloral hydrate (Sinopharm Chemical Reagent Co., Ltd., Shanghai, China); 1 mL/10 g of body weight). The hair of the entire dorsum was shaved and depilated one day before sterile air injection.
Air pouches were produced by subcutaneous injection of sterile air (5 mL) into the intrascapular area of the mice. After three days, another injection of air (3 mL) was performed to maintain the pouches. In order to induce acute inflammation, three days after the second injection, animals received an injection of sterile carrageenan solution (CP Kelco, Taixing, Jiangsu Province, China; 1%, 0.5 mL; produced by adding 0.1 g of carrageenan powder into a beaker containing 10 mL of 0.9% saline solution and stirring). Mice were pre-treated with test samples or vehicle 1 hour before and 23 hours after the carrageenan injection into the subcutaneous air pouch. Animals were sacrificed 24 hours after the carrageenan injection.
Skin biopsies were taken from the air pouches. A part of the biopsy was fixed in formalin (produced by adding ultra-pure water to 50 mL of a 40% formaldehyde solution (Nanchang Rain Dew Experimental Equipment Co., Ltd., Nanchang, […] Provence, China) up to a total volume of 500 mL) and analyzed by histological embedding in paraffin wax, sectioning and staining.
The histological specimens were analyzed, and an inflammation score and an edema score were estimated. The inflammation scores were estimated by observing heamatoxylin and eosin (HE) stained slices under an optical microscope. Scores (between 1 to 3 points) were given according to the perceived inflammation level (e.g. in cases where only a small amount of inflammatory cells scattered in the area: 1 point was given (mild); in cases where many inflammatory cells were observed: 2 points were given (moderate); and, in cases with diffuse infiltration: 3 points were given (severe)). A similar scoring system was employed for edema levels (3 points for most severe and 1 point for mild) after overall observation.
After conducting some preliminary experiments to validate the model, an experiment was conducted in which mice were treated by administering test samples or vehicle in accordance with Table 4 below. Compound A and Compound B were dissolved in saline at concentrations indicated in Table 4 below (L=low dose, M=medium dose, H=high dose).
Compound A and Compound B were synthesized as described in Examples 8 and 7 above, respectively. The peptide powders were stored at −20° C. prior to use. Dexamethasone (Dex) was obtained from Shanghai Aladdin Bio-Chem Technology Co., Ltd., Shanghai, China.

C57BL/6 mice [2] = experiment: Acute wound model (full-thickness skin wound); conditions: topical 50 μL/wound once daily Day 0 to Day 7; 1.65, 16.45, 164.5 μg/wound/day
Experimental: 6-8 weeks old male C57BL/6 mice were supplied by Changzhou Cvens Experimental Animal Co. Ltd. (Changzhou, Jiangsu Province, China). Prior to any experiments being conducted, mice were housed under standardized conditions at a constant temperature of 22±2° C., with alternating 12-hour periods of light and darkness, and were fed on a standard mouse diet with water, for about a week.
General anesthesia was induced using intraperitoneal administration of 3% chloral hydrate (1 mL/10 g of body weight). The hair on the back was shaved by a baby hair shaver and depilated with cream. The skin area was wiped and sterilized with 75% alcohol twice.
A 12 mm EMS skin biopsy punch (Electron Microscopy Sciences, P.O. Box 550, 1560 Industry Road, Hatfield, PA 19440) was used to make two round wounds on the midline of the back. The two wounds were tangential and the skin between the circles was cut along the upper and lower tangents. Scissors were used to trim the wound. The full thickness of skin was removed to reach the fascia. The wound was oval shape and was left open without suture. […]
Photographs were taken of each wound every other day from Day 0. Photos were scanned into a computer, and wound areas calculated using ImageJ image analysis software (National Institute of Health).
The unhealed wound area was expressed as a percentage of the original wound area: […]

BALB/c mice = experiment: Mouse ear swelling model (xylene); conditions: for Swelling rate: about 0.1 g on right ear 1 h before xylene; for effect on edema caused by inflammation: hydrogels 0.5 and 1 mg/g
Experimental: 30 Health male BALB/c mice with 6-8 weeks old and average body weight of 18-25 g were supplied by Changzhou Cvens Experimental Animal Co., Ltd. and housed and cared for about 1 week prior to the experiment. […] The mice were randomly divided into 6 groups as described in Table 8, with 5 mice in each group. Compound A and Compound B were dissolved at concentrations indicated in Table 8 below (L=low dose, M=medium dose, H=high dose).
All excipients were obtained from Sinopharm Chemical Reagent Co. Ltd. The gels were made with water for injection.
Dexamethasone acetate cream (Dex cream; 5 mg/10 g (which means that there was 5 mg Dex contained in 10 g of the cream), Fuyuan Pharmaceutical Co., Ltd., Anhui, China) was used as positive control.
The left ear of each mouse was used as an autologous control. The right ear of each mouse was treated with the above compounds in the stated concentrations (Table 8).
About 0.1 g of the various gels, and Dex cream were applied to the right ear of mice in each group, both inside and outside. The blank gel base was applied on the ears in the model groups. After 1 hour, 20 μL of xylene (Shanghai Aladdin Bio-Chem Technology Co., Ltd.) was applied to the same ear of each mouse.
The mice were sacrificed by cervical dislocation 40 minutes after xylene application. The left and right ears were cut off. An EMS skin biopsy punch with a diameter of 8 mm was used to take a piece of the ear from the same site on both ears. The weights were recorded, and the swelling rate was calculated as a percentage according to the following formula:
(right ear weight−left ear weight)/left ear weight×100

Row | Substance | Edema score (C57BL/6 mice [1]; low dose 50 μg/mouse) | Inflammation score (C57BL/6 mice [1]; low dose 50 μg/mouse) | Sum of the scores (C57BL/6 mice [1]; low dose 50 μg/mouse) | Edema score (C57BL/6 mice [1]; medium dose 250 μg/mouse) | Inflammation score (C57BL/6 mice [1]; medium dose 250 μg/mouse) | Sum of the scores (C57BL/6 mice [1]; medium dose 250 μg/mouse) | unhealed wound rate / wound healing (FIG. 1) (C57BL/6 mice [2]) | Swelling rate (BALB/c mice; hydrogel 0.5 mg/g (L)) | Swelling rate (BALB/c mice; hydrogel 1 mg/g (H)) | effect on edema caused by inflammation (BALB/c mice)
1 | {[(Ala-Lys-Pro-Ser-Tyr-Hyp-Hyp-Thr-DOPA-Lys)2-Lys]2-Lys}2-Lys (AKPSY[Hyp][Hyp]T[Dopa]KKKK; also: branched lysine dendrimer {[(peptide)2-Lys]2-Lys}2-Lys) [Compound B] | 2.00 | 1.83 | 3.83 | 2.14 | 1.80 | 3.94 | significantly improve wound healing | 43% | 38% | significantly eliminate the edema caused by inflammation
2 | {[(Dopa-Ala-Lys-Pro-Ser-Tyr-Hyp-Hyp-Thr-Tyr-Lys)2-Lys]2-Lys}2-Lys ([Dopa]AKPSY[Hyp][Hyp]TYKKKK; also: branched lysine dendrimer {[(peptide)2-Lys]2-Lys}2-Lys) [Compound A] | 1.71 | 1.86 | 3.57 | 1.57 | 1.57 | 3.14 | significantly improve wound healing | 63% | 43% | significantly eliminate the edema caused by inflammation
